Source: ChEMBL document CHEMBL1154822, “Synthesis and antiproliferative activity of 7-azaindirubin-3'-oxime, a 7-aza isostere of the natural indirubin pharmacophore” (J Nat Prod, 2009)

Assays:
Type in all cases: functional
NCI-H226 [1] = assay: Cytotoxicity against human NCI-H226 cells assessed as cell growth at 1 mM after 1 to 11 days by MTT assay; conditions: read-out: Activity
786-0 = assay: Cytotoxicity against human 786-0 cells assessed as cell growth at 100 uM after 1 to 11 days by MTT assay; conditions: read-out: Activity
SNB-19 [2] = assay: Cytotoxicity against human SNB19 cells assessed as cell growth at 10 uM after 1 to 11 days by MTT assay; conditions: read-out: Activity
OVCAR-3 = assay: Cytotoxicity against human OVCAR-3 cells assessed as cell growth at 100 uM after 1 to 11 days by MTT assay; conditions: read-out: Activity
BT-549 = assay: Cytotoxicity against human BT549 cells assessed as cell growth at 10 uM after 1 to 11 days by MTT assay; conditions: read-out: Activity
NCI-H23 = assay: Cytotoxicity against human NCI-H23 cells assessed as cell growth at 0.1 uM after 1 to 11 days by MTT assay; conditions: read-out: Activity
SK-MEL-28 [3] = assay: Cytotoxicity against human SK-MEL-28 cells assessed as cell growth at 1 uM after 1 to 11 days by MTT assay; conditions: read-out: Activity
NCI/ADR-RES [4] = assay: Cytotoxicity against human NCI/ADR-RES cells assessed as cell growth at 10 uM after 1 to 11 days by MTT assay; conditions: read-out: Activity
SF-539 = assay: Cytotoxicity against human SF539 cells assessed as cell growth at 100 uM after 1 to 11 days by MTT assay; conditions: read-out: Activity
A549 [5] = assay: Cytotoxicity against human A549 cells assessed as cell growth at 1 uM after 1 to 11 days by MTT assay; conditions: read-out: Activity
HOP-92 = assay: Cytotoxicity against human HOP92 cells assessed as cell growth at 0.1 uM after 1 to 11 days by MTT assay; conditions: read-out: Activity
SNB-75 [6] = assay: Cytotoxicity against human SNB75 cells assessed as cell growth at 10 uM after 1 to 11 days by MTT assay; conditions: read-out: Activity
NCI/ADR-RES [7] = assay: Cytotoxicity against human NCI/ADR-RES cells assessed as cell growth at 100 uM after 1 to 11 days by MTT assay; conditions: read-out: Activity
TK-10 = assay: Cytotoxicity against human TK10 cells assessed as cell growth at 100 uM after 1 to 11 days by MTT assay; conditions: read-out: Activity
PC-3 = assay: Cytotoxicity against human PC3 cells assessed as cell growth at 1 uM after 1 to 11 days by MTT assay; conditions: read-out: Activity
M14 = assay: Cytotoxicity against human M14 cells assessed as cell growth at 10 uM after 1 to 11 days by MTT assay; conditions: read-out: Activity
HL-60(TB) = assay: Cytotoxicity against human HL-60(TB) cells assessed as cell growth at 0.1 uM after 1 to 11 days by MTT assay; conditions: read-out: Activity
COLO 205 [8] = assay: Cytotoxicity against human COLO205 cells after 1 to 11 days by MTT assay
SN12C = assay: Cytotoxicity against human SN12C cells assessed as cell growth at 1 uM after 1 to 11 days by MTT assay; conditions: read-out: Activity
SNB-75 [9] = assay: Cytotoxicity against human SNB75 cells after 1 to 11 days by MTT assay
SW-620 = assay: Cytotoxicity against human SW620 cells assessed as cell growth at 1 mM after 1 to 11 days by MTT assay; conditions: read-out: Activity
K562 = assay: Cytotoxicity against human K562 cells assessed as cell growth at 1 uM after 1 to 11 days by MTT assay; conditions: read-out: Activity
HCC 2998 = assay: Cytotoxicity against human HCC2998 cells assessed as cell growth at 1 mM after 1 to 11 days by MTT assay; conditions: read-out: Activity
NCI-H226 [10] = assay: Cytotoxicity against human NCI-H226 cells assessed as cell growth at 10 uM after 1 to 11 days by MTT assay; conditions: read-out: Activity
OVCAR-5 = assay: Cytotoxicity against human OVCAR5 cells assessed as cell growth at 1 mM after 1 to 11 days by MTT assay; conditions: read-out: Activity
SNB-19 [11] = assay: Cytotoxicity against human SNB19 cells assessed as cell growth at 100 uM after 1 to 11 days by MTT assay; conditions: read-out: Activity
HOP-62 = assay: Cytotoxicity against human HOP62 cells assessed as cell growth at 100 uM after 1 to 11 days by MTT assay; conditions: read-out: Activity
UACC-62 [12] = assay: Cytotoxicity against human UACC62 cells assessed as cell growth at 1 mM after 1 to 11 days by MTT assay; conditions: read-out: Activity
U-251 = assay: Cytotoxicity against human U251 cells assessed as cell growth at 1 uM after 1 to 11 days by MTT assay; conditions: read-out: Activity
SK-MEL-28 [13] = assay: Cytotoxicity against human SK-MEL-28 cells after 1 to 11 days by MTT assay
[14] = Cytotoxicity against human Hs 578T cells assessed as cell growth at 1 mM after 1 to 11 days by MTT assay; conditions: read-out: Activity
CCRF-CEM = assay: Cytotoxicity against human CCRF-CEM cells assessed as cell growth at 100 uM after 1 to 11 days by MTT assay; conditions: read-out: Activity
NCI-H460 = assay: Cytotoxicity against human NCI-H460 cells assessed as cell growth at 1 mM after 1 to 11 days by MTT assay; conditions: read-out: Activity
RPMI-8226 = assay: Cytotoxicity against human RPMI8226 cells assessed as cell growth at 0.1 uM after 1 to 11 days by MTT assay; conditions: read-out: Activity
NCI/ADR-RES [15] = assay: Cytotoxicity against human NCI/ADR-RES cells assessed as cell growth at 1 mM after 1 to 11 days by MTT assay; conditions: read-out: Activity
COLO 205 [16] = assay: Cytotoxicity against human COLO205 cells assessed as cell growth at 10 uM after 1 to 11 days by MTT assay; conditions: read-out: Activity
A549 [17] = assay: Cytotoxicity against human A549 cells assessed as cell growth at 100 uM after 1 to 11 days by MTT assay; conditions: read-out: Activity
NCI-H322M = assay: Cytotoxicity against human NCI-H322M cells assessed as cell growth at 1 uM after 1 to 11 days by MTT assay; conditions: read-out: Activity
SNB-75 [18] = assay: Cytotoxicity against human SNB75 cells assessed as cell growth at 1 uM after 1 to 11 days by MTT assay; conditions: read-out: Activity
DU-145 = assay: Cytotoxicity against human DU145 cells assessed as cell growth at 100 uM after 1 to 11 days by MTT assay; conditions: read-out: Activity
SNB-19 [19] = assay: Cytotoxicity against human SNB19 cells assessed as cell growth at 1 uM after 1 to 11 days by MTT assay; conditions: read-out: Activity
ACHN = assay: Cytotoxicity against human ACHN cells assessed as cell growth at 1 mM after 1 to 11 days by MTT assay; conditions: read-out: Activity
UACC-62 [20] = assay: Cytotoxicity against human UACC62 cells after 1 to 11 days by MTT assay
IGROV-1 = assay: Cytotoxicity against human IGROV1 cells assessed as cell growth at 1 uM after 1 to 11 days by MTT assay; conditions: read-out: Activity
[21] = read-out: LC50 (the source's name)

Molecule `O=C1Nc2ncccc2/C1=C1/Nc2ccccc2/C1=N\O` has a growth at 1000 µM (NCI-H226 [1]) of 13%, a growth at 100 µM (786-0) of 41% and a growth at 10 µM (SNB-19 [2]) of 94%. For the same molecule, the growth at 100 µM (OVCAR-3) was 51%, the growth at 10 µM (BT-549) was 69% and the growth at 0.1 µM (NCI-H23) was 96%. The growth at 1 µM (SK-MEL-28 [3]) was 87%, the growth at 10 µM (NCI/ADR-RES [4]) was 99% and the growth at 100 µM (SF-539) was 60%. It also gave a growth at 1 µM (A549 [5]) of 95%, a growth at 0.1 µM (HOP-92) of 102% and a growth at 10 µM (SNB-75 [6]) of 86%. The growth at 100 µM (NCI/ADR-RES [7]) was 57%, the growth at 100 µM (TK-10) was 49% and the growth at 1 µM (PC-3) was 83%. For the same molecule, the growth at 10 µM (M14) was 86%, the growth at 0.1 µM (HL-60(TB)) was 103% and the GI50 (COLO 205 [8]) was 1.73 µM. For the same molecule, the TGI (COLO 205 [8]) was over 100 µM, the CC50 (COLO 205 [8]; [21]) was over 100 µM and the growth at 1 µM (SN12C) was 89%. It also gave a GI50 (SNB-75 [9]) of 3.13 µM, a TGI (SNB-75 [9]) of over 100 µM and a CC50 (SNB-75 [9]; [21]) of over 100 µM. The growth at 1000 µM (SW-620) was 39%, the growth at 1 µM (K562) was 76% and the growth at 1000 µM (HCC 2998) was 36%. It also gave a growth at 10 µM (NCI-H226 [10]) of 53%, a growth at 1000 µM (OVCAR-5) of 49% and a growth at 100 µM (SNB-19 [11]) of 78%. It also gave a growth at 100 µM (HOP-62) of 63%, a growth at 1000 µM (UACC-62 [12]) of 25% and a growth at 1 µM (U-251) of 97%. It also gave a GI50 (SK-MEL-28 [13]) of 32.8 µM, a TGI (SK-MEL-28 [13]) of over 100 µM and a CC50 (SK-MEL-28 [13]; [21]) of over 100 µM. It also gave a growth at 1000 µM [14] of 31%, a growth at 100 µM (CCRF-CEM) of 37% and a growth at 1000 µM (NCI-H460) of 32%. The growth at 0.1 µM (RPMI-8226) was 95%, the growth at 1000 µM (NCI/ADR-RES [15]) was 55% and the growth at 10 µM (COLO 205 [16]) was 84%. The growth at 100 µM (A549 [17]) was 15%, the growth at 1 µM (NCI-H322M) was 82% and the growth at 1 µM (SNB-75 [18]) was 90%. For the same molecule, the growth at 100 µM (DU-145) was 39%, the growth at 1 µM (SNB-19 [19]) was 97% and the growth at 1000 µM (ACHN) was 17%. It also gave a GI50 (UACC-62 [20]) of 3.49 µM, a TGI (UACC-62 [20]) of over 100 µM and a CC50 (UACC-62 [20]; [21]) of over 100 µM. For the same molecule, the growth at 1 µM (IGROV-1) was 84%.
